Reference: patent US5177082A, “Huperzines and analogs” (priority 1990, dated 1993)
Like-named read-outs stand apart in the source and are kept apart here.

Tests used:
pseudocholinesterase = target: T1, pseudocholinesterase (Rattus norvegicus, UniProt Q9JKC1); test: biochemical
T1 construct: 0.1 ml of rat blood serum; from tissue; host or cells: rat blood serum
Method: (§1) Red blood cell membranes of rats were used as the source for the true cholinesterase with a substrate concentration of 0.3 mM of S-acetylthiocholine iodide. The source for pseudocholinesterase was 0.1 ml of rat blood serum and the substrate was 0.4 mM S-butyrylthiocholine iodide. The Ellman colorimetric method was used to measure the enzyme activity. The percentage of enzyme activity remaining was plotted against negative logarithm (pI) of the drug concentration and the pI50 (the negative logarithm of the gram molecule concentration of the drug required to inhibit the enzyme activity 50%) was derived.

true cholinesterase = true cholinesterase (Rattus norvegicus, UniProt P37136); test: biochemical; set-up: Red blood cell membranes of rats; from tissue; host or cells: rat red blood cell membranes
Sequence of true cholinesterase (P37136-2 with tags, fused parts or gaps limits assumed): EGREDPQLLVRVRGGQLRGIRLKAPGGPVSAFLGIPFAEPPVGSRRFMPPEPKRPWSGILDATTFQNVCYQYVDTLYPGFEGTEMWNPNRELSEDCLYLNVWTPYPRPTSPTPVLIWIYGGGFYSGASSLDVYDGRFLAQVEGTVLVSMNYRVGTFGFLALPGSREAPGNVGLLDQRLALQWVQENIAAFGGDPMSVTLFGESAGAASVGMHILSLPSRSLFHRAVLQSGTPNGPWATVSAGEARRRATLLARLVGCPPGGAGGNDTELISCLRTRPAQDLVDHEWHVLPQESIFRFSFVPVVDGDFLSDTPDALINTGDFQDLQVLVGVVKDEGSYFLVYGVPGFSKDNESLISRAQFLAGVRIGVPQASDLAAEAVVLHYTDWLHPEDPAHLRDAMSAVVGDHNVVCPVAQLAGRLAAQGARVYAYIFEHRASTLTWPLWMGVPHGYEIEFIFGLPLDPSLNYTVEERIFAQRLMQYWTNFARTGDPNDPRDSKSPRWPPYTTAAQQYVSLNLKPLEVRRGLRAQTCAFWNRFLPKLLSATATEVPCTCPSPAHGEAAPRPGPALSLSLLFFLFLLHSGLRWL
Method: as §1

TA100 = test: Mutation test (Ames) TA100 + S9; conditions: 1500 μg/container
[1] = system: Sciatic Nerve/Tibialis Muscle Preparation; test: Anesthetized rabbit sciatic nerve/tibialis muscle preparation; type: in vivo; conditions: rabbits; for minimal effective dose: Oryctolagus cuniculus, iv, read-out: Lowest Effective Dosage for Enhancing Muscle Contraction
Method: (§3) Anesthesized Rat and Rabbit Sciatic Nerve/Tibialis Muscle Preparation
(§4) Anesthesia was produced in rats by ip injections of 30 mg/kg of pentobarbital and in rabbits by iv injections of 1 g/kg of urethane. Electric stimulation of the periphery of the sciatic nerve (5-10 V, 0.5 ms, 1 c/10 s) caused tibialis contraction which was recorded on smoked paper.

Rats = conditions: rat, in vivo
Mice = conditions: mouse, in vivo
in vivo [2] = conditions: rat, ip
[3] = system: Sciatic Nerve/Tibialis Muscle Preparation; test: Anesthetized rat sciatic nerve/tibialis muscle preparation; type: in vivo; conditions: for minimal effective dose: Rattus norvegicus, iv, read-out: Lowest Effective Dosage for Enhancing Muscle Contraction
Method: as §3, §4

[4] = system: In Vitro Rat Nerve/Diaphragm Muscle Contraction; test: In vitro phrenic nerve/diaphragm preparations of rats, enhancement of muscle contraction; conditions: for EC50: read-out: Enhancement of Muscle Contraction Amplitude, 50% Concentration; for Strength of Effect: relative to Huperzine A = 1.00
Method: 1. In Vitro Phrenic Nerve/Diaphragm Preparations of Rats.
After the fast decapitation of a rat, the thoracic cavity was opened and the right diaphragm with attached phrenic nerve was removed. After placing it in a Tyrode's solution (37° C. constant temperature), gassed with 95% oxygen+5% CO2, electrical stimulation (1-10 V, 0.5 ms, 1 c/10 s) of the phrenic nerve was used to produce muscle contraction. A transducer was used to record the contraction amplitude on a panel recorder. […].

in vivo [5] = conditions: mouse, ip
myasthenia gravis = test: Double blind cross-over comparison of Huperzine A and neostigmine, 69 cases of myasthenia gravis; type: in vivo, human
Excerpt: (§2) Patients affected with myasthenia gravis (MG) with typical clinical symptoms which improved after using neostigmine were the subjects for testing and verification. […] The injections were all given in the morning and on the morning prior to the injections anticholinesterase drugs were discontinued. Neither the patients nor the doctors knew which drug was being injected. Later, the symptoms, the duration of the improvements, if any, which were obtained by the drugs and the side effects were recorded.
(1) Comparison of the maintained times of the effects.

patients = test: Clinical side effects in patients with myasthenia gravis; type: in vivo, human
Method: as §2, with “verification. […] It was generally used for at least ten days and each dosage was 0.4-0.5 mg.” for “verification.”, “recorded. Based on these factors, the relative merits of the two drugs were established.” for “recorded.”

[6] = system: learning functions of rats; test: Y maze conditioned reflex test, learning process of rats; conditions: 0.08 mg/kg, iv
Excerpt: Each animal was required to go through 10 successive shock-free runs to be classified as learned.

memory functions of rats = test: Memory function of preconditioned rats after 48 hours; type: in vivo, rat; conditions: 0.15 mg/kg, after 48 hours
Method: To evaluate the impact on the memory function, preconditioned animals going through 5 shock-free runs were used as learned animals. After 48 hours the drug-free (control) animals required 14.4±8.9 shocks to become learned.

[7] = 0.4 mM S-butyrylthiocholine iodide, read-out: Inhibition of Cholinesterase (pI50), Blood serum (converted)
[8] = in vitro rat phrenic nerve/diaphragm, 37° C.
[9] = 0.3 mM S-acetylthiocholine iodide, read-out: Inhibition of Cholinesterase (pI50), Red Blood Cells (converted)

T1 sequence (Q9JKC1 24-597): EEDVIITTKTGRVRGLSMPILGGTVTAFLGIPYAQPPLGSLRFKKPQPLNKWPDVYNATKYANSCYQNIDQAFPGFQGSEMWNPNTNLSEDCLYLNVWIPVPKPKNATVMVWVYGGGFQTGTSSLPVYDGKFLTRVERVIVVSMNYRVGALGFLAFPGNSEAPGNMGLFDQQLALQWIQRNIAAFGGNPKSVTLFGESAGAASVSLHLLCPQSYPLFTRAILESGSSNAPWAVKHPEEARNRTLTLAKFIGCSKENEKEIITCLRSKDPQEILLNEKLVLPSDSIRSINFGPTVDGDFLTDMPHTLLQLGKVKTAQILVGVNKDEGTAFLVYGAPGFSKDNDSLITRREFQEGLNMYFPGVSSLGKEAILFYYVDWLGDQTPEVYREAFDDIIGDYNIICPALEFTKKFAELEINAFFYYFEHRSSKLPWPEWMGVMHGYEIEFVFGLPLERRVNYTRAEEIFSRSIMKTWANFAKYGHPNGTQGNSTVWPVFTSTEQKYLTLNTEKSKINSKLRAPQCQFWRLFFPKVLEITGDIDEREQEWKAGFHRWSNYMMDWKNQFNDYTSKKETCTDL

CCC1[C@H]2C=C(C)C[C@]1(N)c1ccc(=O)[nH]c1C2 (stereo partly drawn) [11,12-dihydro-huperzine A, (5R, 9R)-5-amino-11-ethyl-5,6,9,10-tetrahydro-7-methyl-5,9-methanocycloocta[b]pyridin-2(1H)-one]
IC50 (pseudocholinesterase; [7]): 12.6 µM
IC50 (true cholinesterase): 0.631 µM

O=P1(N(CCCl)CCCl)NCCCO1 (stereo not shown) [Cyclophosphamide]
reverse mutation colonies, TA100 + S9 (TA100): 566 ± 10

COc1ccc2c3c1O[C@H]1C[C@@H](O)C=C[C@@]31CCN(C)C2 [Galanthamine, reference compound]
minimal effective dose [1]: 0.5 mg/kg
Strength of Effect ([1]; galanthamine = 1.0): 1.0
Toxic Strength (Rats): 1.22
Toxic Strength (Mice): 0.13
Inhibition of Cholinesterase (pI50), Blood serum (pseudocholinesterase): 4.9
LD50 (in vivo [2]): 22.9 mg/kg
minimal effective dose [3]: 0.5 mg/kg
Strength of Effect ([3]; rat, in vivo): 1.0
EC50 [4, 8]: 4.2 µM
Strength of Effect [4]: 0.10
LD50 (in vivo [5]): 13.4 mg/kg

CC1=C[C@H]2Cc3[nH]c(=O)ccc3[C@]3(C1)NCCC[C@H]23 [Huperzine B, (4aR, 5R, 10bR)-1,2,3,4,4a,5,6,10b-octahydro-12-methyl-5,10b-propeno-1,7-phenanthrolin-8(7H)-one]
IC50 (pseudocholinesterase): 200 µM
EC50 ([4]; Rattus norvegicus): 4.8 µM
Strength of Effect [4]: 0.09
IC50 (true cholinesterase): 0.501 µM

C/C=C1\[C@H]2C=C(C)C[C@]1(NC(C)=O)c1ccc(=O)[nH]c1C2 [N-acetyl huperzine A, (5R, 9R, 11E)-5-(acetylamino)-11-ethylidene-5,6,9,10-tetrahydro-7-methyl-5,9-methanocycloocta[b]pyridin-2(1H)-one]
Inhibition of Cholinesterase, Blood serum (concentration found ineffective) (pseudocholinesterase): 1.1 × 10^-2 M ineffective
IC50 (true cholinesterase; [9]): > 3160 µM

C/C=C1\[C@H]2C=C(C)C[C@]1(N(C)C)c1ccc(=O)[nH]c1C2 [N-dimethyl huperzine A, (5R, 9R, 11E)-11-ethylidene-5,6,9,10-tetrahydro-7-methyl-5-(dimethylamino)-5,9-methanocycloocta[b]pyridin-2(1H)-one]
Inhibition of Cholinesterase, Blood serum (concentration found ineffective) (pseudocholinesterase; 0.4 mM S-butyrylthiocholine iodide): 1.2 × 10^-2 M ineffective
IC50 (true cholinesterase): 158 µM

CC1=C[C@H]2Cc3[nH]c(=O)ccc3[C@@]3(C1)[C@@H]2CCCN3C [N-methyl huperzine B, (4aR, 5R, 10bR)-1,2,3,4,4a,5,6,10b-octahydro-1,12-dimethyl-5,10b-propeno-1,7-phenanthrolin-8(7H)-one]
IC50 (pseudocholinesterase; [7]): 316 µM

C/C=C1\[C@H]2C=C(C)C[C@]1(N(C)C)c1ccc(=O)n(C)c1C2 [N-trimethyl-huperzine A, (5R, 9R, 11E)-11-ethylidene-5,6,9,10-tetrahydro-1,7-dimethyl-5-(dimethylamino)-5,9-methanocycloocta[b]pyridin-2(1H)-one]
Inhibition of Cholinesterase, Blood serum (concentration found ineffective) (pseudocholinesterase): 1.1 × 10^-2 M ineffective
IC50 (true cholinesterase; [9]): 316 µM

CN(C)C(=O)Oc1cccc([N+](C)(C)C)c1 [Neostigmine, reference compound]
IC50 (pseudocholinesterase; [7]): 3.55 µM
action time of neostigmine longer than Huperzine A, % (myasthenia gravis): 8.69%
action time of neostigmine longer than Huperzine A, cases (myasthenia gravis): 6 cases
EC50 ([4]; Rattus norvegicus): 0.272 µM
Strength of Effect [4]: 1.61
Abdominal pains, % (patients; control group): 7.4%
Abdominal pains, number of times (patients; control group): 26
Blurred vision, % (patients; control group): 9.7%
Blurred vision, number of times (patients; control group): 24
Dizziness, % (patients; control group): 19.5%
Dizziness, number of times (patients; control group): 68
Drooling, % (patients; control group): 1.2%
Drooling, number of times (patients; control group): 11
Increase in the number of bowel movements, % (patients; control group): 2.0%
Increase in the number of bowel movements, number of times (patients; control group): 7
Muscle bundle quivering, % (patients; control group): 8.3%
Muscle bundle quivering, number of times (patients; control group): 29
Myosis, % (patients; control group): 3.4%
Myosis, number of times (patients; control group): 12
Nausea, % (patients; control group): 4.3%
Nausea, number of times (patients; control group): 15
Perspiring, % (patients; control group): 12.1%
Perspiring, number of times (patients; control group): 43
Tinnitus, % (patients; control group): 4.0%
Tinnitus, number of times (patients; control group): 14
Vomiting, % (patients; control group): 1.2%
Vomiting, number of times (patients; control group): 6
cases with side effects (patients; control patients, 69 cases): 34 cases
cases with side effects, % (patients; control patients, 69 cases, X^2 =3.58, P>0.05): 49.27%
perspiring and blurred vision vs Huperzine A (patients; perspiring X^2 =5.5, P<0.01, blurred vision X^2 =12.96, P<0.001): more noticeably than Hyperzine A caused perspiring and blurred vision
IC50 (true cholinesterase; [9]): 0.224 µM

CNC(=O)Oc1ccc2c(c1)[C@]1(C)CCN(C)[C@@H]1N2C [Physostigmine, reference compound]
minimal effective dose [1]: 0.12 mg/kg
effect on electrically stimulated muscle contraction ([1]; iv (Huperzine A 30 μg/kg)): enhanced the rabbit's tibialis muscle contraction amplitude but to a lesser degree than that observed for the rats
Strength of Effect ([1]; physostigmine = 1.0): 1.0
Toxic Strength (Rats): 2.08
Toxic Strength (Mice): 2.25
IC50 (pseudocholinesterase): 1.12 µM
LD50 (in vivo [2]): 2.4 mg/kg
minimal effective dose ([3]; rats): 0.05 mg/kg
Strength of Effect ([3]; rats, physostigmine = 1.0): 1.0
EC50 [4, 8]: 0.245 µM
Strength of Effect [4]: 1.79
shocks accepted before achieving the learned state (learning) [6]: 7.9±3.5 shocks
shocks required to achieve the learned state (memory) (memory functions of rats): 6.4±3.7 shocks
LD50 (in vivo [5]): 0.8 mg/kg

CCC1[C@H]2Cc3[nH]c(=O)ccc3[C@@]1(N)CC(C)C2 (stereo partly drawn) [tetrahydro-huperzine A, (5R, 9R)-5-amino-11-ethyl-5,6,7,8,9,10-hexahydro-7-methyl-5,9-methanocycloocta[b]pyridin-2(1H)-one]
IC50 (pseudocholinesterase; [7]): 50.1 µM
IC50 (true cholinesterase; [9]): 2.51 µM

Tubocurarine [reference compound]
block of electrically induced muscle contraction ([3]; tubocurarine 0.3 mg/kg iv, species not separated (rats/rabbits)): completely blocked the electrically induced muscle contraction
